Read-outs that look alike come from different tables or passages of the source.
Legend:
[1] = Quantum efficiency of singlet oxygen generation in air-saturated solution; assay type: physicochemical; conditions: air-saturated solution
Excerpt: (§1) The ability of the dyes of this invention to function as a cancer-treating agent is in part a reflection of the ability of the dye to generate singlet oxygen in air-saturated solution. (As used herein, "air-saturated solution" means a solution of dye exposed to the atmosphere.) In studying a variety of chalcogenopyrylium dyes, only those dyes containing a selenium or tellurium atom show any appreciable generation of singlet oxygen upon irradiation. Fortuitously, selenopyrylium and telluropyrylium dyes have absorption maxima that are shifted to the red relative to their pyrylium and thiopyrylium analogues. That is, not only are these dyes effective in killing cancer cells because of their high quantum efficiency, but also they generally operate at the most preferred wavelengths, namely those of 700 nm or longer. Table III contains examples of chalcogenopyrylium dyes, their quantum efficiencies for singlet oxygen generation, and their absorption maxima. (In this Table, Ph=Phenyl, Me=Methyl, and t-Bu=tertiary butyl.)

[2] = system: FADU (human squamous cell carcinoma); assay: In vitro photodynamic therapy, FADU cells; assay type: cell-based; conditions: Homo sapiens, read-out: % Surviving Fraction, Light
Description: (§2) Several selenopyrylium dyes and telluropyrylium dyes from Table I that generated singlet oxygen upon irradiation in air-saturated methanol were examined in vitro in mammalian cell cultures for their effectiveness as agents for photodynamic therapy. […] As controls, HSK1 (normal human skin fibroblasts) and CV-1 (normal monkey kidney cells) were used.
(§3) In vitro cell cultures were grown in antibiotic-free growth medium DMEM-F12 supplemented to 10% with fetal bovine serum and adjusted to 4.5 mM with L-glutamine. DMEM-F12 is a 1:1 mixture of Dulbecco's modified Eagle's medium (Gibco) and Ham's nutrient mixture F12 (Gibco). Prior to cell seeding, multi-well plates were blackened with spray paint, coating the external walls of each well to minimize light scattering from well to well. Subconfluent cell cultures were trypsinized and plated at a concentration of 10^5 cells per 2 cm^2 well. Cells were allowed to incubate overnight at 37° C. in a humidified atmosphere before dye and/or light exposure.
(§4) Stock solutions of the chalcogenopyrylium dyes were prepared at 1 mM concentration by sonication in 95% ethanol in the dark. These stock solutions were diluted with growth medium to the desired concentration. Dyes were protected from light throughout the entire experimental procedure until the time for irradiation. Standard treatment time for dye exposure was 1 hour. The dye containing medium was replaced with fresh growth medium prior to irradiation. Eighteen to twenty-four hours later, the remaining metabolically active cells were evaluated by the MTT colorimetric assay and/or cell counting. Assays were performed in triplicate with standard deviations generally of less than 10%. Percent kill was determined from mean optical density of the treated samples and that of the control (untreated) samples for the MTT analysis and from mean cell counts for these two groups for the cell-counting method. (See Table V).
(§5) Near-infrared and visible light from three sources were employed in these assays. Tungsten light (100-200 mW) was used to assess low milliwatt multiple wavelength effects. An argon-pumped dye laser (Model 150 Aurora, Cooper Lasersonics, Inc., Santa Clara, Calif.) with laser dye LDS 751 (Exciton Chemical Co., Inc., Dayton, Ohio) and a peak wavelength of 785±5 nm was coupled by a […] quartz fiberoptic to a microlens assembly that gave a uniform mode of distribution of light intensity. Thirdly, a laser diode (Model 2430-H2, Spectra Diode Laboratories, Inc., San Jose, Calif. with a fixed wavelength of 800±2 nm provided light energy in the near infrared. The diode was coupled by a 400 μm quartz fiberoptic with a clear and polished end. For laser irradiation experiments, the distance of the fiber tip from the well bottom was adjusted so that the laser irradiation exactly covered the 2 cm^2 target area. A distal power meter (Model 2000, Coherent, Inc., Auburn, Calif.) was used to determine the energy output of the laser source.

[3] = In vitro photodynamic therapy, FADU cells; assay type: cell-based, human; conditions: human, fadu squamous cell carcinoma, FADU, dark, read-out: % Surviving Fraction, Dark; for viability at 1 µM: 1 × 10^-6 M
Description: as §2, §3, §4, §5

[4] = Absorption maxima (λmax) of chalcogenopyrylium dyes; assay type: physicochemical
Excerpt: as §1

[5] = system: CV-1 (normal monkey kidney cells); assay: In vitro photodynamic treatment, control CV-1 cells; assay type: cell-based; conditions: Primates
Description: as §2, §3, §4, §5

[6] = as above; assay type: cell-based, monkey; conditions: monkey, cv-1 kidney cells, dark, read-out: % Surviving Fraction, Dark; for viability at 1 µM: CV1, 1 × 10^-6 M
Description: as §2, §3, §4, §5

[7] = system: B-16 melanoma (mouse melanoma); assay: In vitro photodynamic therapy, B-16 cells; assay type: cell-based; conditions: Mus musculus
Description: as §2, §3, §4, §5

[8] = In vitro photodynamic therapy, B-16 cells; assay type: cell-based, mouse; conditions: mouse, b-16 melanoma cells, dark, read-out: % Surviving Fraction, Dark; for viability at 1 µM: B-16, 1 × 10^-6 M
Description: as §2, §3, §4, §5

[9] = system: U251 (human glioma); assay: In vitro photodynamic therapy, U251 cells; assay type: cell-based; conditions: Homo sapiens, U-251, read-out: % Surviving Fraction, Light; for viability at 1 µM: U251, 1 × 10^-6 M; for viability at 0.1 µM: U251, 1 × 10^-7 M
Description: as §2, §3, §4, §5

[10] = In vitro photodynamic therapy, U251 cells; assay type: cell-based, human; conditions: human, u251 glioma cells, dark, read-out: % Surviving Fraction, Dark; for viability at 1 µM: U251, 1 × 10^-6 M; for viability at 0.1 µM: U251, 1 × 10^-7 M
Description: as §2, §3, §4, §5

[11] = system: HSK1 (normal human skin fibroblasts); assay: In vitro photodynamic treatment, control HSK1 cells; assay type: cell-based; conditions: Homo sapiens, Skin fibroblast, read-out: % Surviving Fraction, Light; for viability at 0.1 µM: HSK1, 1 × 10^-7 M
Description: as §2, §3, §4, §5

[12] = as above; assay type: cell-based, human; conditions: human, hsk1 skin fibroblasts, dark, read-out: % Surviving Fraction, Dark; for viability at 0.1 µM: HSK1, 1 × 10^-7 M
Description: as §2, §3, §4, §5

[13] = Stability in solution; assay type: physicochemical
[14] = CV-1, read-out: % Surviving Fraction, Light
[15] = B16, read-out: % Surviving Fraction, Light
[16] = 50 J cm^-2, source A (tungsten)
[17] = 15 J cm^-2, source A (tungsten)

Which “Quantum efficiency of singlet oxygen generation Φ(1O2)” value (“Quantum efficiency” for short) [1] does the source give for `CC(C)(C)C1=CC(=CC=Cc2cc(C(C)(C)C)[o+]c(C(C)(C)C)c2)C=C(C(C)(C)C)O1.[Cl-]` [C.E. 3, 2,6-Di-t-butyl-4-[3-(2,6-di-t-butyl-4H-pyran-4-ylidene)-1-propen-1-yl]pyrylium chloride, reference compound] here?
The value was at most 0.001.

And the viability at 1 µM ([2]; FADU, 1 × 10^-6 M, 27 J cm^-2, source D (tungsten, 500 nm cutoff))?
The viability at 1 µM was 99%.

What about the viability at 1 µM [3] of the same compound?
Its viability at 1 µM is 99%.

And the “Absorption maximum λmax” value ([4]; H2O)?
Its value is 595 nm.

What about the viability at 1 µM ([5]; CV-1, CV1, 1 × 10^-6 M, 27 J cm^-2, source D (tungsten, 500 nm cutoff), read-out: % Surviving Fraction, Light) of the same compound?
The viability at 1 µM was 99%.

What about the viability at 1 µM [6] of the same compound?
Its viability at 1 µM is 100%.

What about the viability at 1 µM ([7]; B16, B-16, 1 × 10^-6 M, 27 J cm^-2, source D (tungsten, 500 nm cutoff), read-out: % Surviving Fraction, Light) of the same compound?
The viability at 1 µM was 99%.

And the viability at 1 µM [8]?
The viability at 1 µM was 99%.

What does the source list for `CC(C)(C)C1=CC(=CC=Cc2cc(C(C)(C)C)[o+]c(C(C)(C)C)c2)C=C(C(C)(C)C)[Se]1` [Dye 9]?
Quantum efficiency of singlet oxygen generation Φ(1O2) [1]: 0.005; viability at 1 µM ([2]; FaDu): 0.2%; viability at 1 µM [3]: 99%; Absorption maximum λmax ([4]; H2O): 660 nm; viability at 1 µM [5, 14]: 99%; viability at 1 µM [6]: 100%; viability at 1 µM [7, 15]: 0.2%; viability at 1 µM [8]: 99%

With `CC(C)(C)C1=CC(=CC=Cc2cc(C(C)(C)C)[te+]c(C(C)(C)C)c2)C=C(C(C)(C)C)[Te]1` [Dye 4] as the compound, how does the “Quantum efficiency” value [1] read?
Its value is 0.13.

And the viability at 1 µM ([9]; 50 J cm^-2, source B (dye laser 785 nm))?
The viability at 1 µM was 75%.

And the viability at 1 µM [10]?
The viability at 1 µM was 100%.

And the “Absorption maximum λmax” value ([4]; CH2Cl2)?
The value was 830 nm.

And the viability at 1 µM [5, 14]?
Its viability at 1 µM is 95%.

And the viability at 1 µM [6]?
The viability at 1 µM was 99%.

What about the viability at 1 µM [7, 15] of the same compound?
The viability at 1 µM was 30%.

What about the viability at 1 µM [8] of the same compound?
The viability at 1 µM was 99%.

With `CC(C)(C)C1=CC(=Cc2cc(C(C)(C)C)[te+]c(C(C)(C)C)c2)C=C(C(C)(C)C)[Te]1` [Dye 12] as the compound, how does the “Quantum efficiency” value [1] read?
Its value is 0.07.

What about the viability at 0.1 µM [11, 16] of the same compound?
Its viability at 0.1 µM is 99%.

What about the viability at 0.1 µM [12] of the same compound?
Its viability at 0.1 µM is 100%.

What about the viability at 1 µM [9, 16] of the same compound?
The viability at 1 µM was 1%.

And the viability at 0.1 µM [9, 16]?
The viability at 0.1 µM was 74%.

What about the viability at 1 µM [10] of the same compound?
Its viability at 1 µM is 55%.

And the viability at 0.1 µM [10]?
Its viability at 0.1 µM is 83%.

And the “Absorption maximum λmax” value ([4]; H2O)?
Its value is 705 nm.

With `CC(C)(C)C1=CC(=CC=Cc2cc(C(C)(C)C)[se+]c(C(C)(C)C)c2)C=C(C(C)(C)C)[Te]1` [Dye 1] as the compound, how does the “Quantum efficiency” value [1] read?
Its value is 0.09.

What about the viability at 0.05 µM ([2]; FaDu) of the same compound?
Its viability at 0.05 µM is 0.1%.

What about the viability at 0.05 µM ([3]; 5 × 10^-8 M) of the same compound?
Its viability at 0.05 µM is 99%.

What about the viability at 0.05 µM ([11]; HSK1, 5 × 10^-8 M, 15 J cm^-2, source C (diode laser 800 nm)) of the same compound?
Its viability at 0.05 µM is 97%.

What about the viability at 0.05 µM ([12]; HSK1, 5 × 10^-8 M) of the same compound?
The viability at 0.05 µM was 99%.

What about the viability at 0.05 µM ([9]; U251, 5 × 10^-8 M, 15 J cm^-2, source C (diode laser 800 nm)) of the same compound?
Its viability at 0.05 µM is 65%.

And the viability at 0.05 µM ([10]; U251, 5 × 10^-8 M)?
The viability at 0.05 µM was 85%.

And the “Absorption maximum λmax” value ([4]; CH2Cl2)?
Its value is 786 nm.

What about the viability at 0.05 µM [5, 14] of the same compound?
The viability at 0.05 µM was 99%.

And the viability at 0.05 µM ([6]; CV1, 5 × 10^-8 M)?
The viability at 0.05 µM was 100%.

And the viability at 0.05 µM [7, 15]?
The viability at 0.05 µM was 0.03%.

And the viability at 0.05 µM ([8]; B-16, 5 × 10^-8 M)?
Its viability at 0.05 µM is 99%.

For `CC(C)(C)C1=CC(=CC=Cc2cc(C(C)(C)C)[o+]c(C(C)(C)C)c2)C=C(C(C)(C)C)[Te]1` [Dye 5], which “Quantum efficiency” value [1] is on record?
The value was 0.06.

What about the viability at 0.1 µM ([2]; FaDu) of the same compound?
Its viability at 0.1 µM is 0.05%.

And the viability at 0.1 µM ([3]; 1 × 10^-7 M)?
Its viability at 0.1 µM is 99%.

And the viability at 0.1 µM [11, 17]?
The viability at 0.1 µM was 99%.

And the viability at 0.1 µM [12]?
Its viability at 0.1 µM is 99%.

And the viability at 0.1 µM [9, 17]?
The viability at 0.1 µM was 58%.

What about the viability at 0.1 µM [10] of the same compound?
Its viability at 0.1 µM is 90%.

What about the “Absorption maximum λmax” value ([4]; H2O) of the same compound?
Its value is 700 nm.

And the viability at 0.1 µM [5, 14]?
The viability at 0.1 µM was 99%.

What about the viability at 0.1 µM ([6]; CV1, 1 × 10^-7 M) of the same compound?
Its viability at 0.1 µM is 100%.

What about the viability at 0.1 µM [7, 15] of the same compound?
The viability at 0.1 µM was 0.1%.

What about the viability at 0.1 µM ([8]; B-16, 1 × 10^-7 M) of the same compound?
Its viability at 0.1 µM is 99%.

Which results are given for `C(=CC=C1C=C(c2ccccc2)[Te]C(c2ccccc2)=C1)C=Cc1cc(-c2ccccc2)[te+]c(-c2ccccc2)c1` [Dye 16]?
Quantum efficiency of singlet oxygen generation Φ(1O2) [1]: 0.005; Stability in solution [13]: tended to be unstable in solution; Absorption maximum λmax ([4]; MeOH): 1060 nm

From patent US5047419A, “Photodynamic therapy of glioma or mammary carcinoma using seleno- or telluropyrylium salts” (Eastman Kodak Company, priority 1988, dated 1991)
